Results from the NIST ThermoML archive (doi:10.1021/acs.jced.5b00412).

Conditions: 101.3 kPa, Liquid, Vibrating tube method

NCCCO [3-amino-1-propanol]
Conditions	mass density [kg/m3]
293.15 K	987.5
298.15 K	983.6
303.15 K	979.6
308.15 K	975.5
313.15 K	971.5
318.15 K	967.5
323.15 K	963.4
328.15 K	959.3
333.15 K	955.8
338.15 K	951.7
343.15 K	947.6
348.15 K	943.5
353.15 K	939.3
